Like-named read-outs stand apart in the source and are kept apart here. Starred links: 1 amine or outer side, 2 acyl side, 3 side chain; linkers in the order of their positions; H or OH if unused. Positions of bridges follow the written chain, without caps; N, C: chain ends. Non-standard residues stand in square brackets, D forms with d. Residues, ends and D or L forms follow the SMILES beside them. ξ: configuration not given here. Phe(3,4,5-F3) = N[C@@H](Cc1cc(F)c(F)c(F)c1)C(=O)O; Phe(4-F) = N[C@@H](Cc1ccc(F)cc1)C(=O)O; 2Nal = N[C@@H](Cc1ccc2ccccc2c1)C(=O)O; Bta = N[C@@H](Cc1csc2ccccc12)C(=O)O; Hyp = O=C(O)[C@@H]1C[C@@H](O)CN1; NMeF = CN[C@@H](Cc1ccccc1)C(=O)O; X4 = O=C([C@H]1COCCN1[*:1])[*:2]; dHyp = O=C(O)[C@H]1C[C@H](O)CN1; NMeNle = CCCC[C@H](NC)C(=O)O; NMeM = CN[C@@H](CCSC)C(=O)O; NMeS = CN[C@@H](CO)C(=O)O; NMeA = CN[C@@H](C)C(=O)O; Orn = NCCC[C@H](N)C(=O)O; Dab = NCC[C@H](N)C(=O)O; ξC = NC(CS)C(=O)O; Sar = CNCC(=O)O
Legend:
Human PD-L1/PD-1 = target: T1, Human PD-L1/PD-1 (Homo sapiens, UniProt Q9NZQ7); assay: HTRF PD-1-Ig/PD-L1-His binding assay (human PD-L1)
T1 construct: made in house; host or cells: HEK293T
T1 sequence (Q9NZQ7 with tags, fused parts or gaps): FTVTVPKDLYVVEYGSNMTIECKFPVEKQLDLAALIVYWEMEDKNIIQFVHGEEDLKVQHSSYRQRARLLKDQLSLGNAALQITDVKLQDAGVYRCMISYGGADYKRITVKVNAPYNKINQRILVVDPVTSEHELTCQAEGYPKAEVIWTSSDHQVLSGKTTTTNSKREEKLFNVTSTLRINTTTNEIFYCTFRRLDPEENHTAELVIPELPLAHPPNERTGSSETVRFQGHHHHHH
In short: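 Readout: time-resolved FRET between Eu cryptate-labeled anti-Ig (1 nM final) and APC-labeled anti-His (20 nM final) antibodies. These detect interaction of Fc-fused PD-1 with His-tagged human PD-L1 in dPBS containing 0.1% BSA and 0.05% Tween-20.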

[1] = target: T2, LK35.2-hPD-L1 cells / PE-labeled PD-1-Ig (Homo sapiens, UniProt Q9NZQ7); assay: LK35.2-hPD-L1 cell binding high-content screening assay; type: cell-based
T2 construct: expressed in transfected cells; host or cells: LK35.2 mouse B cell line
T2 sequence (Q9NZQ7 19-290): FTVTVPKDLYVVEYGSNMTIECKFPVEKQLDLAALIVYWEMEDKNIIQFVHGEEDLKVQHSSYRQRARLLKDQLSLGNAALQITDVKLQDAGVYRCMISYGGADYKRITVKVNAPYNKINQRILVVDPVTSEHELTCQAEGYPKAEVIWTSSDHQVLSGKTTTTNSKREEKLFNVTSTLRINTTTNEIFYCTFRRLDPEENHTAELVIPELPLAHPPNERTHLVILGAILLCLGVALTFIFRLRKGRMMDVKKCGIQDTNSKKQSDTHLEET
In short: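 Readout: high-content imaging of PE-PD-1-Ig bound to LK35.2-hPD-L1 cells. Cells plated overnight (RPMI/10% FCS); compound + 1 nM PE-PD-1-Ig, 1 h, 37 °C; 3× dPBS wash before imaging.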

[2] = cluster symbol, read-out: HTRF IC50 cluster
[3] = cell binding assay, cell line not given, value given instead of cluster, read-out: CBA IC50 value
[4] = cell binding assay, cell line not given, cluster symbol, read-out: CBA IC50 cluster

Compound | IC50 (Human PD-L1/PD-1; [2]) [nM] | IC50 [1, 4] [nM] | further results
CCCC[C@H]1C(=O)N(C)[C@@H](CCCC)C(=O)N[C@@H](CO)C(=O)N[C@H](C(=O)NCC(N)=O)CSCC(=O)N[C@@H](Cc2ccc(O)cc2)C(=O)N(C)[C@@H](C)C(=O)N[C@@H](CCN)C(=O)N2CCC[C@H]2C(=O)N[C@@H](Cc2c[nH]cn2)C(=O)N[C@@H](CCC(=O)O)C(=O)N2C[C@H](O)C[C@H]2C(=O)N[C@@H](Cc2c[nH]c3ccccc23)C(=O)N[C@@H](C(C)C)C(=O)N[C@@H](Cc2c[nH]c3ccccc23)C(=O)N1C [Example 5097] ({CH2CO}-Y[NMeA][Dab]PHE[Hyp]WVW[NMeNle][NMeNle]SCG-NH2; thioether N-14) | 6.76 to 30.3 | – | IC50 [1, 3]: 74.3 nM
CCCC[C@H]1C(=O)N(C)[C@@H](CCCC)C(=O)N[C@@H](CCCNC(=N)N)C(=O)NC(C(=O)NCC(N)=O)CSCC(=O)N[C@@H](Cc2ccc(O)cc2)C(=O)N(C)[C@@H](C)C(=O)N[C@@H](CC(N)=O)C(=O)N2C[C@H](O)C[C@H]2C(=O)N[C@@H](Cc2cnc[nH]2)C(=O)N[C@@H](CC(C)C)C(=O)N2C[C@H](O)C[C@H]2C(=O)N[C@@H](Cc2c[nH]c3ccccc23)C(=O)N[C@@H](CO)C(=O)N[C@@H](Cc2c[nH]c3ccccc23)C(=O)N1C (stereo partly shown) [Example 9013] ({CH2CO}-Y[NMeA]N[Hyp]HL[Hyp]WSW[NMeNle][NMeNle]R[ξC]G-NH2; thioether N-14) | – | – | IC50 (Human PD-L1/PD-1; numeric value, read-out: HTRF IC50 values): 8.11 nM; IC50 ([1]; cell binding assay, cell line not given, numeric value, read-out: CBA IC50 values): 5.97 nM
CCCC[C@H]1C(=O)N(C)CC(=O)N[C@@H](CC(=O)O)C(=O)N[C@@H](C(C)C)C(=O)N(C)[C@@H](Cc2ccccc2)C(=O)N[C@@H](Cc2ccc(O)cc2)C(=O)N(C)CC(=O)N[C@@H](Cc2c[nH]c3ccccc23)C(=O)N[C@@H](Cc2ccc(O)cc2)C(=O)N[C@@H](CC(C)C)C(=O)N[C@H](C(=O)NCC(N)=O)CSCC(=O)N[C@@H](Cc2ccc(F)cc2)C(=O)N(C)[C@@H](Cc2ccccc2)C(=O)N1C [Example 3520] ({CH2CO}-[Phe(4-F)][NMeF][NMeNle][Sar]DV[NMeF]Y[Sar]WYLCG-NH2; thioether N-13) | 6.76 to 30.3 | 0.158 to 4.71 | –
CCCC[C@H]1C(=O)N(C)[C@@H](CCSC)C(=O)N[C@@H](CCCNC(=N)N)C(=O)NC(C(=O)NCC(N)=O)CSCC(=O)N[C@@H](Cc2ccc(O)cc2)C(=O)N(C)[C@@H](C)C(=O)N[C@@H](CC(N)=O)C(=O)N2CCC[C@H]2C(=O)N[C@@H](Cc2cnc[nH]2)C(=O)N[C@@H](CO)C(=O)N2C[C@H](O)C[C@H]2C(=O)N[C@@H](Cc2c[nH]c3ccccc23)C(=O)N[C@@H](CO)C(=O)N[C@@H](Cc2csc3ccccc23)C(=O)N1C (stereo partly shown) [Example 9108] ({CH2CO}-Y[NMeA]NPHS[Hyp]WS[Bta][NMeNle][NMeM]R[ξC]G-NH2; thioether N-14) | 0.385 to 6.74 | 0.158 to 4.71 | –
CCCC[C@H]1C(=O)N(C)[C@@H](CCCC)C(=O)N[C@@H](CCCNC(=N)N)C(=O)NC(C(=O)NCC(N)=O)CSCC(=O)N[C@@H](Cc2ccc(O)cc2)C(=O)N(C)[C@@H](CO)C(=O)N[C@@H](CC(N)=O)C(=O)N2CCC[C@H]2C(=O)N[C@@H](Cc2cnc[nH]2)C(=O)N[C@@H](CC(C)C)C(=O)N2CCC[C@H]2C(=O)N[C@@H](Cc2c[nH]c3ccccc23)C(=O)N[C@@H](CO)C(=O)N[C@@H](Cc2csc3ccccc23)C(=O)N1C (stereo partly shown) [Example 9035] ({CH2CO}-Y[NMeS]NPHLPWS[Bta][NMeNle][NMeNle]R[ξC]G-NH2; thioether N-14) | 6.76 to 30.3 | 4.78 to 72.9 | –
CCCC[C@H]1C(=O)N(C)[C@@H](CCCC)C(=O)N[C@@H](CCCN)C(=O)N[C@H](C(=O)NCC(N)=O)CSCC(=O)N[C@@H](Cc2ccc(O)cc2)C(=O)N2CCCC[C@H]2C(=O)N[C@@H](CC(N)=O)C(=O)N2CCC[C@H]2C(=O)N[C@@H](Cc2cnc[nH]2)C(=O)N[C@@H](CC(C)C)C(=O)N2C[C@H](O)C[C@H]2C(=O)N[C@@H](Cc2c[nH]c3ccccc23)C(=O)N[C@@H](CO)C(=O)N[C@@H](Cc2c[nH]c3ccccc23)C(=O)N1C [Example 1177] | 0.385 to 6.74 | – | IC50 ([1]; cluster symbol, cell line of CBA not given (LK35.2-hPD-L1 or 293T-hPD-L1), read-out: CBA IC50 cluster): 0.158 to 4.71 nM
CCCC[C@H]1C(=O)N(C)[C@@H](CCCC)C(=O)N[C@@H](CCCNC(=N)N)C(=O)N[C@H](C(=O)NCC(N)=O)CSCC(=O)N[C@@H](Cc2ccc(O)cc2)C(=O)N(C)[C@@H](C)C(=O)N[C@@H](CCN)C(=O)N2CCC[C@H]2C(=O)N[C@@H](Cc2c[nH]cn2)C(=O)N[C@@H](CC(C)C)C(=O)N2C[C@H](O)C[C@H]2C(=O)N[C@@H](Cc2c[nH]c3ccccc23)C(=O)N[C@@H](CO)C(=O)N[C@@H](Cc2c[nH]c3ccccc23)C(=O)N1C [Example 5094] ({CH2CO}-Y[NMeA][Dab]PHL[Hyp]WSW[NMeNle][NMeNle]RCG-NH2; thioether N-14) | 0.385 to 6.74 | 4.78 to 72.9 | –
CCCC[C@H]1C(=O)N(C)[C@@H](CCCC)C(=O)N[C@@H](CCCNC(=N)N)C(=O)N[C@H](C(=O)NCC(N)=O)CSCC(=O)N[C@@H](Cc2ccccc2)C(=O)N(C)[C@@H](C)C(=O)N[C@@H](CC(N)=O)C(=O)N2CCC[C@H]2C(=O)N[C@@H](Cc2c[nH]cn2)C(=O)N[C@@H](CC(C)C)C(=O)N(C)CC(=O)N[C@@H](Cc2c[nH]c3ccccc23)C(=O)N[C@@H]([C@@H](C)O)C(=O)N[C@@H](Cc2c[nH]c3ccccc23)C(=O)N1C [Example 5008] ({CH2CO}-F[NMeA]NPHL[Sar]WTW[NMeNle][NMeNle]RCG-NH2; thioether N-14) | – | – | IC50 (Human PD-L1/PD-1; value given instead of cluster, read-out: HTRF IC50 value): 18.1 nM; IC50 [1, 3]: 22.7 nM
CCCC[C@H]1C(=O)N(C)[C@@H](CCCC)C(=O)N[C@@H]([C@@H](C)CC)C(=O)N[C@H](C(=O)NCC(N)=O)CSCC(=O)N[C@@H](Cc2ccccc2)C(=O)N(C)[C@@H](C)C(=O)N[C@@H](CC(N)=O)C(=O)N2CCC[C@H]2C(=O)N[C@@H](Cc2cnc[nH]2)C(=O)N[C@@H](CC(C)C)C(=O)N(C)CC(=O)N[C@@H](Cc2c[nH]c3ccccc23)C(=O)N[C@@H](CO)C(=O)N[C@@H](Cc2c[nH]c3ccccc23)C(=O)N1C [Example 5018] ({CH2CO}-F[NMeA]NPHL[Sar]WSW[NMeNle][NMeNle]ICG-NH2; thioether N-14) | 6.76 to 30.3 | 4.78 to 72.9 | –
CCCC[C@H]1C(=O)N2C[C@@H](O)C[C@@H]2C(=O)N[C@@H](CC(N)=O)C(=O)N[C@@H](C(C)C)C(=O)N(C)[C@@H](Cc2ccccc2)C(=O)N[C@@H](CCC(N)=O)C(=O)N2CCOC[C@@H]2C(=O)N[C@@H](Cc2c[nH]c3ccccc23)C(=O)N[C@@H](Cc2ccc(O)cc2)C(=O)N[C@@H](CCCN)C(=O)N[C@H](C(=O)NCC(N)=O)CSCC(=O)N[C@@H](Cc2cc(F)c(F)c(F)c2)C(=O)N(C)[C@@H](Cc2ccccc2)C(=O)N1C [Example 3605] ({CH2CO}-[Phe(3,4,5-F3)][NMeF][NMeNle][dHyp]NV[NMeF]Q[X4]WY[Orn]CG-NH2; thioether N-13) | 0.385 to 6.74 | 0.158 to 4.71 | –
CCCC[C@H]1C(=O)N(C)CC(=O)N[C@@H](CC(=O)O)C(=O)N[C@@H](C(C)C)C(=O)N(C)[C@@H](Cc2ccccc2)C(=O)N[C@@H](Cc2ccc(O)cc2)C(=O)N(C)CC(=O)N[C@@H](Cc2c[nH]c3ccccc23)C(=O)N[C@@H](Cc2ccc3ccccc3c2)C(=O)N[C@@H](CC(C)C)C(=O)N[C@H](C(=O)NCC(N)=O)CSCC(=O)N[C@@H](Cc2ccccc2)C(=O)N(C)[C@@H](Cc2ccccc2)C(=O)N1C [Example 3538] ({CH2CO}-F[NMeF][NMeNle][Sar]DV[NMeF]Y[Sar]W[2Nal]LCG-NH2; thioether N-13) | > 30.5 | > 74.3 | –

— US9850283B2, “Macrocyclic inhibitors of the PD-1/PD-L1 and CD80(B7-1)/PD-L1 protein/protein interactions” (BRISTOL-MYERS SQUIBB COMPANY, priority 2013, dated 2017)
